Results published in US9669028B2, “Substituted 5-(pyrazin-2-yl)-1H-pyrazolo [3, 4-B] pyridine and pyrazolo [3, 4-B] pyridine derivatives as protein kinase inhibitors” (Arrien Pharmaceuticals LLC, priority 2011, dated 2017).
≈ marks a conversion by molar mass, not a printed value.

Experiments:
[1] = molecular target: DYRK1A (Homo sapiens (Human), UniProt Q13627); assay: In vitro DYRK1A inhibition assay; format: biochemical
Experimental: (§1) Briefly, specific kinase/substrate pairs along with required cofactors were prepared in reaction buffer; 20 mM Hepes (pH 7.5), 10 mM MgCl2, 1 mM EGTA, 0.02% Brij35, 0.02 mg/ml BSA, 0.1 mM Na3VO4, 2 mM DTT, 1% DMSO. Compounds were delivered into the reaction, followed ˜20 min later by addition of a mixture of ATP (Sigma) and 33P ATP (PerkinElmer) to a final concentration of 10 μM. […] IC50 values and curve fits were obtained using Prism (GraphPad Software). Kinome tree representations were prepared using Kinome Mapper (http://www.reactionbiology.com/apps/kinome/mapper/Launch Kinome.htm).
The 2×DYRK1A/Ser/Thr 18 mixture was prepared in 50 mM HEPES pH 7.5, 0.01% BRIJ-35, 10 mM MgCl2, 1 mM EGTA.

[2] = system: 299 protein kinases+17 additional preview kinases; assay: Protein Kinase Selectivity Profiler; format: biochemical, human; conditions: 10 μM ATP; for % enzyme inhibition relative to DMSO controls: LRRK2, LRRK2 G2019S, CHK1, DYRK1A, FLT3, MLK1, TNIK, TRKA, single dose 0.5 μM, 1 μM
Experimental: In vitro profiling of the 317 member kinase panel was performed at Reaction Biology Corporation using the “HotSpot” assay platform. Briefly, specific kinase/substrate pairs along with required cofactors were prepared in reaction buffer; 20 mM Hepes (pH 7.5), 10 mM MgCl2, 1 mM EGTA, 0.02% Brij35, 0.02 mg/ml BSA, 0.1 mM Na3VO4, 2 mM DTT, 1% DMSO. Compounds were delivered into the reaction, followed ˜20 min later by addition of a mixture of ATP (Sigma) and 33P ATP (PerkinElmer) to a final concentration of 10 μM. Reactions were carried out at 25° C. for 120 min, followed by spotting of the reactions onto P81 ion exchange filter paper (Whatman). Unbound phosphate was removed by extensive washing of filters in 0.75% phosphoric acid. […] IC50 values and curve fits were obtained using Prism (GraphPad Software). Kinome tree representations were prepared using Kinome Mapper (http://www.reactionbiology.com/apps/kinome/mapper/Launch Kinome.htm). Specifically for the LRRK2 enzyme the substrate LRRKtide (gene bank and protein access numbers NP_940980.2 Q5S007) and clone aa 970-2527 expressed in baculovirus in insect cells with N-terminal GST tag was employed in the study protocol. In the case of DYRK1A (SEQ ID NO 16) the substrate casein (gene bank and protein access numbers NP_001387 Q13627) full length clone expressed in insect with n-terminal tag was used.
A control compound was tested in 10-dose IC50 mode with 3-fold serial dilution starting at 20 μM. Reactions were carried out at 10 μM ATP. Data pages include raw data, % Enzyme activity (relative to DMSO controls), and curve fits.

[3] = in vivo; conditions: male, Sprague Dawley, rat
Text: To investigate the pharmacokinetic profiles of test compound following intravenous bolus administration and oral gavage in male Sprague Dawley rats.

[4] = molecular target: LRRK2 (Homo sapiens (Human), UniProt Q5S007); assay: LRRK2 Kinase Assay; format: biochemical; conditions: 10 μM ATP
Experimental: as §1
For the wild type LRRK the 2×LRRK2/ERM (LRRKtide) mixture was prepared in 50 mM Tris pH 8.5, 0.01% BRIJ-35, 10 mM MgCl2, 1 mM EGTA, 0.02% NaN3. […] After 1 hour Kinase Reaction incubation, 5 μL of Detection Mix was added.

[5] = system: MPTP-injected C57 black mice; assay: MPTP mouse model, intravenous pre-treatment; format: in vivo; conditions: 5 mg/kg i.v.
Experimental: 24 C57 black mice (C57/bl6, 6-8 week old, and 25-30 g) were purchased from Charles River Laboratories, Ohio. […] Prior to treatment animals were pre-trained on rotarod for at least 3 minutes every day for three successive days. Test compound (5 mg/kg) was administered intravenously to group C animals, 24 h prior to MPTP-injection and continued daily for additional 11 days. MPTP was dissolved in PBS and injected intraperitoneally (i.p.) at doses of 25 mg/kg, once daily for 5 days to group B and C animals. Group A animals were injected with saline (i.p.) to be used as controls. Urine and Faeces were collected on Day 8, behavioural studies were performed on Day 9 (4-days post-MPTP). On day 12 (7 days post-MPTP), 4 animals/group were sacrificed, different brains regions including striatum and substantia nigra were dissected. Left striatum were used for neurochemical analysis. Other 4 animals/group were perfused and used for TH immunohistological studies.

[6] = system: MPTP-injected C57 black mice; assay: MPTP mouse model of Parkinson's disease, oral pre-treatment; format: in vivo; conditions: for protection against MPTP-induced TH cell loss and dopaminergic degeneration in substantia nigra and striatum: 10 mg/kg and 30 mg/kg oral; for locomotor activities in MPTP-injected mice / striatal dopamine levels in MPTP treated mice: orally administered, pre-treatment
[7] = molecular target: LRRK2 G2019S (Homo sapiens (Human), UniProt Q5S007, G2019S); assay: LRRK2 G2019S Kinase Assay; format: biochemical; conditions: 10 μM ATP
Experimental: Procedure: Enzyme was incubated with substrate peptide in reaction buffer in the presence and absence of test compounds or Staurosporine. All additions were done on ice, followed by the addition of ATP mix. Wells were uniformly mixed using an Eppendorff plate shaker and incubated at 30° C. for 20 min, and stopped by the addition of 5 μl of 3% phosphoric acid. Volume was increased to 100 μl by adding 0.8% phosphoric acid which was then transferred to PC filter mats (Millipore), pre-equilibrated with 70% ethanol and water. Plates were washed thrice with 100 μl 0.8% phosphoric acid and dried for an hour at 60° C. 100 μl scintillation fluid was added into each well and reading taken in Perkin Elmer TOPCOUNT beta counter. […] A validation EC50 curve was generated by plotting CPM for each Staurosporine concentration on y-axis against the Log concentration of Staurosporine (nM) on the x-axis followed by a best fit curve through the points.
After 1 hour Kinase Reaction incubation, 5 μL of Detection Mix was added.

[8] = system: MPTP-injected C57 black mice; assay: MPTP mouse model, post-treatment study; format: in vivo; conditions: post-administration, oral and i.v routes
Experimental: 32 C57 black mice (C57/bl6, 6-8 week old, 25-30 g) were purchased from Charles River Laboratories, Ohio. […] All animals were housed in Laboratory of Animal Resources vivarium at Iowa State University under standard conditions: constant temperature (22±1° C.), humidity (relative, 30%), and a 12-h light/dark cycle. Mice were allowed free access to food and water. Use of the animals and protocol procedures were approved and supervised by the Committee on Animal Care at Iowa State University (Ames, Iowa). Test compounds were dissolved in PBS for this study. Prior to treatment animals were pre-trained on rotarod for at least 3 minutes every day for three successive days. Group A animals were injected with saline (i.p.) to be used as controls. MPTP was dissolved in PBS and injected intraperitoneally (i.p.) at doses of 25 mg/kg, once daily for 5 days to group B, C and D animals. On day 4, prior to 4th MPTP injection, group C animals received test compounds (30 mg/kg, oral) daily for eight days. Similarly, on day 4, prior to 4th MPTP injection, group D animals received test compounds (5 mg/kg, i.v) daily for eight days. On day 9 (Post-test compounds administration) or day 12 (7 days post-MPTP), 4 animals/group were sacrificed, different brain regions including striatum and substantia nigra were dissected. Left striatum were used for neurochemical analysis. Other 4 animals/group were perfused and used for TH immunohistological studies.

[9] = system: Rat hepatoma (H4IIE) cell line; assay: In vitro toxicology, general cytotoxicity; format: cell-based; conditions: 24 hrs
Experimental: Cells were seeded into 96-well plates and cultured in medium containing 20% bovine serum. […] General cytotoxicity was evaluated by monitoring membrane integrity (MBR, cell supernatant), cell mass (PI) and mitochondrial function (cellular ATP levels). Rotenone was included as a positive control because it produces measurable effects in all three assays. DMSO at 0.5% in medium was included as a negative control. Three wells per exposure concentration were used in each assay. Results are summarized in Table 8 and are expressed as percent of control, with control values set at 100%. […] Test compounds 13 and 13 HCl were rank-ordered from most to least toxic based on individual membrane integrity and ATP responses as well as resultant TC50 values.
Test compounds 13 and 13 HCl were rank-ordered from highest to lowest probability of producing toxicity based first on membrane toxicity, then on ATP, and finally on cell mass (PI). It is important to note that within a given grouping compounds may be classified as to their primary effect being either cytotoxic, cytostatic, or reducing mitochondrial function. In general, compound responses above 80% of vehicle control are considered to be low-to-no effect, moderates generally rank 80% to 50% of vehicle control, and those compounds that cross the 50% mark are considered to have higher probability of toxicity.

[10] = physchem

Sequence of LRRK2 G2019S (Q5S007 970-2527 G2019S): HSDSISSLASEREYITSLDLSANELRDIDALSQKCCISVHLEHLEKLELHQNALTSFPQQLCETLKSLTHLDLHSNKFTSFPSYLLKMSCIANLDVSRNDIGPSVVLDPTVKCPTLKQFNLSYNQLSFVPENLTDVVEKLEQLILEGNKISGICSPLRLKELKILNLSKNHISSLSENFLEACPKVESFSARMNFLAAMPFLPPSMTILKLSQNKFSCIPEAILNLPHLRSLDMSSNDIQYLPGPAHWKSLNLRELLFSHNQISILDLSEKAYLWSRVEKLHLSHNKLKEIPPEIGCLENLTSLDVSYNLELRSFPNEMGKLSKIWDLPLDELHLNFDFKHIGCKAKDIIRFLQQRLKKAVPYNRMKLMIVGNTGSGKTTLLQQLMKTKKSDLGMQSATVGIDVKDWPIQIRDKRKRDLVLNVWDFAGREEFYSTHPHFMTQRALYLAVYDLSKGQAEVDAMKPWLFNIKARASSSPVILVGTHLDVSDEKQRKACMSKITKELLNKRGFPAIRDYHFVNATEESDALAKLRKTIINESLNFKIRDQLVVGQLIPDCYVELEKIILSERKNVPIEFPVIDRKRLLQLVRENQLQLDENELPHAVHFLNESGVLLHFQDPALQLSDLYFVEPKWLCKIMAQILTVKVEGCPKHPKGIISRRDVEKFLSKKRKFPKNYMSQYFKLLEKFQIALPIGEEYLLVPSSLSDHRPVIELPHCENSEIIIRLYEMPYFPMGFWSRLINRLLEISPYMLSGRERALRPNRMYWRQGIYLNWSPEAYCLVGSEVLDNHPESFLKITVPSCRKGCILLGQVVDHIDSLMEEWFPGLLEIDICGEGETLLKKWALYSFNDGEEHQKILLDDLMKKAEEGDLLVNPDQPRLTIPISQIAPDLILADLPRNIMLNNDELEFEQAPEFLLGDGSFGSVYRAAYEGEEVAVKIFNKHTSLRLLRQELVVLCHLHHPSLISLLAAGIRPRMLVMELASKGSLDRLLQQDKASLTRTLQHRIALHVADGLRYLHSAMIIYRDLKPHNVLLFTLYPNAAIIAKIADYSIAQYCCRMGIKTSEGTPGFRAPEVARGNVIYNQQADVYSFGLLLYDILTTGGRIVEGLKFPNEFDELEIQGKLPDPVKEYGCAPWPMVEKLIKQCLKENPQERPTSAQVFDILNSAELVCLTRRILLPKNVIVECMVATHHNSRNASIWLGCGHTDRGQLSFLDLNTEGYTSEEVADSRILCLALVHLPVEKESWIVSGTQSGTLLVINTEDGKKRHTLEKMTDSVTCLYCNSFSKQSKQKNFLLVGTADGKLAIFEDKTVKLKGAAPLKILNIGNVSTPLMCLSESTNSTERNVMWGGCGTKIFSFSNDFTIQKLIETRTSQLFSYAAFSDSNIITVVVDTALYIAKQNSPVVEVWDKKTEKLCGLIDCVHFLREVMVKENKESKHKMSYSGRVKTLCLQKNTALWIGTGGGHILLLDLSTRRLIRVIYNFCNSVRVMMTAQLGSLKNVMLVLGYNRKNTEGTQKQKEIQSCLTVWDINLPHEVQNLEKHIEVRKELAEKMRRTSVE
Sequence of LRRK2 (Q5S007 970-2527): as the sequence (Q5S007 970-2527 G2019S) above, with S1050G counted along it

IC50 [1] | AUC(0-t) ([3]; iv, 5 mg/kg) | Vd ([3]; iv, 5 mg/kg) | clearance ([3]; iv, 5 mg/kg) | half-life ([3]; iv, 5 mg/kg) | AUC(0-t) ([3]; po, 30 mg/kg) | Cmax ([3]; po, 30 mg/kg) | F ([3]; po, 30 mg/kg) | Tmax ([3]; po, 30 mg/kg) | IC50 [4] | IC50 [7] | % enzyme inhibition relative to DMSO controls [2] | SMILES | protection against MPTP-induced TH neuronal loss in the substantia nigra and in the striatum [5] | protection against MPTP-induced TH cell loss and dopaminergic degeneration in substantia nigra and striatum [6] | locomotor activities in MPTP-injected mice [6] | striatal dopamine levels in MPTP treated mice [6] | further results
< 500 nM | 1020 ng·h/mL | 15.2 L/kg | 123 mL/min/kg | 2.26 h | 1040 ng·h/mL | 133 ng/mL | 24% | 6.7 h | < 500 nM | < 500 nM |  | Cc1n[nH]c2ncc(-c3cncc(N(C)CC4CCOCC4)n3)cc12 [Compound 71, N-methyl-6-(3-methyl-1H-pyrazolo[3,4-b]pyridin-5-yl)-N-((tetrahydro-2H-pyran-4-yl)methyl)pyrazin-2-amine] | Protect Against MPTP-Induced TH Neuronal Loss | dose-dependent protection | Improve Locomotor Activities | Restore Striatal Dopamine Levels | activity against kinases in broader scope, relative to DMSO control ([2]; ABL1 T315I, ALK2, ARK5, Aurora A/B/C, BRAF, C-KIT, CLK1-4, CSF1R, DYRK1A-4, FLT3, GSK3β, JAK1-3, KDR, LCK ... TRKA-C, single dose): 5-15%
< 500 nM | 1020 ng·h/mL | 15.2 L/kg | 123 mL/min/kg | 2.26 h | 1040 ng·h/mL | 133 ng/mL | 24% | 6.7 h | < 500 nM | < 500 nM | 5-15% | Cc1n[nH]c2ncc(-c3cncc(N4CCOCC4)n3)cc12 [Compound 105, 4-(6-(3-methyl-1H-pyrazolo[3,4-b]pyridin-5-yl)pyrazin-2-yl)morpholine] | Protect Against MPTP-Induced TH Neuronal Loss | dose-dependent protection | Improve Locomotor Activities | Restore Striatal Dopamine Levels | protection against MPTP-induced histological deficits [8]: significantly protected; protection against MPTP-induced motor-deficits [8]: significantly protected; protection against MPTP-induced neurochemical deficits [8]: not against neurochemical deficits
< 500 nM | 1020 ng·h/mL | 15.2 L/kg | 123 mL/min/kg | 2.26 h | 1040 ng·h/mL | 133 ng/mL | 24% | 6.7 h | < 500 nM | < 500 nM | 5-15% | c1ccc2c(c1)CCN2c1cncc(-c2cnc3[nH]ccc3c2)n1 [Compound 134, 5-(6-(indolin-1-yl)pyrazin-2-yl)-1H-pyrrolo[2,3-b]pyridine] | Protect Against MPTP-Induced TH Neuronal Loss | dose-dependent protection | Improve Locomotor Activities | Restore Striatal Dopamine Levels | 
 |  |  |  |  |  |  |  |  |  |  |  | C=C(C)[C@H]1Cc2c(ccc3c2O[C@@H]2COc4cc(OC)c(OC)cc4[C@@H]2C3=O)O1 [Rotenone, reference compound] |  |  |  |  | ATP % Control ([9]; 0.001 μM): 98%; Cell Mass % Control ([9]; 0.001 μM): 105%; Mem Tox % Control ([9]; 0.001 μM): 100%; ATP % Control ([9]; 0.1 μM): 34%; Cell Mass % Control ([9]; 0.1 μM): 54%; Mem Tox % Control ([9]; 0.1 μM): 98%; ATP % Control ([9]; 1 μM): 4%; Cell Mass % Control ([9]; 1 μM): 25%; Mem Tox % Control ([9]; 1 μM): 46%; ATP TC50 [9]: 80 nM; Cell Mass TC50 [9]: 230 nM; Mem Tox TC50 [9]: 930 nM; solubility [10]: 1 µM (≈ 0.394 µg/mL)
